Assay results from BindingDB's records for patent US20250059220 (Merck Sharp & Dohme, 2025).

Legend:
[1] = molecular target: T1, Tyrosine-protein phosphatase non-receptor type 1 (Homo sapiens, UniProt P18031); assay: PTPN1 Biochemical Assay
T1 sequence (P18031 whole entry): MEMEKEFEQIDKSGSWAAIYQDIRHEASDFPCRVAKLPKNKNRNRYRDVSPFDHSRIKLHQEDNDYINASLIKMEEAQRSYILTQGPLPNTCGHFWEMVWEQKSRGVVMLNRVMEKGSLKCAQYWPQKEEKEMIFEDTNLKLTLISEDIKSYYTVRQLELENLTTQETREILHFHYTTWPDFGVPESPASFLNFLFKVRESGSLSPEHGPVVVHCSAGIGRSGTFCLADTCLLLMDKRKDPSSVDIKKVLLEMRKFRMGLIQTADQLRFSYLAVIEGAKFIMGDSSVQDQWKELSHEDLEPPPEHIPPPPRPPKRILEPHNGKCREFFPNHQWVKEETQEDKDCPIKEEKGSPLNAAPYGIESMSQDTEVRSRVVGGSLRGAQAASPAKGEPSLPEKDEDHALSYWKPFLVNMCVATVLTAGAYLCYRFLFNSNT
Experimental: Test compounds were dissolved in DMSO, and 10-point serial 3-fold dilution series in DMSO were prepared in Echo Qualified 384-well Polypropylene Microplates (Labcyte, San Jose, CA) (top concentration 50 µM). […] 5 μl of assay buffer was added into the low control. The plate was incubated for 30 minutes at room temperature. Subsequently, 5 μl of 100 µM DiFMUP (6,8-difluoro-4-methylumbelliferyl phosphate) solution (prepared in assay buffer from 10 mM stock in DMSO) was added to the assay plate and incubated for 1 hour at room temperature. For detection, assay plates were read on SpectraMax Microplate Reader (Molecular Devices), with Excitation wavelength=360 nm and Emission wavelength=460 nm.

[2] = molecular target: T2, Tyrosine-protein phosphatase non-receptor type 2 (Homo sapiens, UniProt P17706); assay: PTPN2 Biochemical Assay
T2 sequence (P17706 whole entry): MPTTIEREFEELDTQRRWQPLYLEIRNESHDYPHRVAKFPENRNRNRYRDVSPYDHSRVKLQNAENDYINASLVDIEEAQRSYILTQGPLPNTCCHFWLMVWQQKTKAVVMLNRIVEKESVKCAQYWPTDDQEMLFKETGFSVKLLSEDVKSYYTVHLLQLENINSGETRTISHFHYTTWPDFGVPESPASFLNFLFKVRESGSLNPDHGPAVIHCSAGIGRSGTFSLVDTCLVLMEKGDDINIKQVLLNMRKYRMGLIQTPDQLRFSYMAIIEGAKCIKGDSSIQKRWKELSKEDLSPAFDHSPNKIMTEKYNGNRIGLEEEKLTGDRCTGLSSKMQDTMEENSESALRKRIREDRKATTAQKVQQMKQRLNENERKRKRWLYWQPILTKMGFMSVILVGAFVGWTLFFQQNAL
Experimental: Test compounds were dissolved in DMSO, and 10-point serial 3-fold dilution series in DMSO were prepared in Echo Qualified 384-well Polypropylene Microplates (Labcyte, San Jose, CA) (top concentration 50 µM). Assay plates (384-well low volume black plates; Corning #3820, Corning, NY) were prepared by dispensing 50 nL of test compound, and DMSO (for high and low controls) by ECHO acoustic dispenser (Labcyte, San Jose CA). This was followed by addition of 5 μL of 0.2 nM human PTPN2 (1-387) solution (prepared in the assay buffer, 50 mM Tris pH 7.4, 150 mM NaCl, 0.01% Tween20, 0.5 mM dithiothreitol) to all wells except the low control. 5 μl of assay buffer was added into the low control, then the plate was incubated for 30 minutes at room temperature. Subsequently, 5 μl of 100 µM DiFMUP (6,8-difluoro-4-methylumbelliferyl phosphate) solution (prepared in assay buffer from 10 mM stock in DMSO) was added to the assay plate and incubated for 1 hour at room temperature. For detection, assay plates were read on SpectraMax Microplate Reader (Molecular Devices), with Excitation wavelength=360 nm and Emission wavelength=460 nm.

IC50 [1]	IC50 [2]	Compound
106 nM	54.8 nM	Cc1ccc(COc2cc(C(N)=O)cc3c(Br)c(C(F)(F)P(=O)(O)O)sc23)cc1C [US20250059220, Compound 358]
78.6 nM	68.1 nM	CS(=O)(=O)CCCOc1cc(C(N)=O)cc2c(C3CC3)c(C(F)(F)P(=O)(O)O)sc12 [US20250059220, Compound 458]
